Consider 4 compounds from ChEMBL document CHEMBL3400016, “Isolation, synthesis and anti-hepatitis B virus evaluation of p-hydroxyacetophenone derivatives from Artemisia capillaris” (Bioorg Med Chem Lett, 2015).

For data set [1], the system named is Hepatitis B virus. Kind of data set: Antiviral activity against hepatitis B viral in human HepG2.2.15 cells assessed as decrease in viral DNA replication treated for 7 days by real time PCR analysis. It counts as functional, organism-based. The following applies: HepG2 2.2.15, 168 h.
Data set [2] relates to Hepatitis B virus. The data set can be described thus: Antiviral activity against hepatitis B viral in human HepG2.2.15 cells assessed as surface antigen HBsAg secretion after 72 hrs by ELISA. As to conditions: HepG2 2.2.15, 72 h. It counts as functional, organism-based.
A short description of data set [3]: Cytotoxicity against human HepG 2.2.15 cells by MTT assay. It counts as cell-based, HepG2 2.2.15. (In general: Formazan colour is commonly taken as a measure of viable cells.)
The nature of data set [4]: Selectivity index, ratio of CC50 for human HepG2.2.15 cells to IC50 for decrease in hepatitis B viral […] antigen HBeAg secretion in human HepG2(2.2.15) cells. Type of data set: functional.
Data set [5] concerns Hepatitis B virus. Kind of data set: Antiviral activity against hepatitis B viral in human HepG2.2.15 cells assessed as […] antigen HBeAg secretion after 72 hrs by ELISA. Type of data set: functional, organism-based. The following applies: HepG2 2.2.15, 72 h. (An ELISA detects its analyte on a solid surface through an enzyme-linked reagent.)
Data set [6] can be described thus: Selectivity index, ratio of CC50 for human HepG2.2.15 cells to IC50 for decrease in hepatitis B viral surface antigen HBsAg secretion in human HepG2(2.2.15) cells. Type of data set: functional.
Data set [7] is described as follows: Selectivity index, ratio of CC50 for human HepG2.2.15 cells to IC50 for decrease in hepatitis B viral DNA replication in human HepG2(2.2.15) cells. Type of data set: functional.

By IC50 is commonly meant the concentration at which inhibition is half-maximal. By CC50 is commonly meant the concentration at which the toxic effect on the cells reaches its halfway point. As for `CC(=O)c1ccc(O)cc1` [4-HYDROXYACETOPHENONE], the IC50 with Hepatitis B virus [1] worked out at 306 µM; in the data set on Hepatitis B virus [2] it was 786 µM; in the data set with Hepatitis B virus [5] it was 1850 µM. Moreover, the CC50 in data set [3] was 2390 µM. In addition, the “Selectivity Index” value came to 1.3 in data set [4], 3 in data set [6] and 7.8 in data set [7].
Consider `CC(=O)c1ccc(OC(=O)/C=C/c2ccc(F)cc2)cc1`, for which the figures for the IC50 in the data set on Hepatitis B virus [1], with Hepatitis B virus [2] and with Hepatitis B virus [5] were over 828 µM, 1510 µM and 1520 µM, respectively. The CC50 in data set [3] is over 3310 µM. Further, the “Selectivity Index” value in data set [4] and in data set [6] was over 2.2 throughout.
As to `CC(=O)c1ccc(O[C@@H]2O[C@H](COC(=O)/C=C/c3ccc(O)c(O)c3)[C@@H](O)[C@H](O)[C@H]2O)cc1`, the IC50 in the data set with Hepatitis B virus [1] came to 8 µM; in the data set on Hepatitis B virus [2], 291 µM; in the data set on Hepatitis B virus [5], 1280 µM. This compound also showed a CC50 in data set [3] of 1580 µM. For the same compound, the “Selectivity Index” value in data set [4] was 1.2; in data set [6], 5.4; in data set [7], over 197.9.
In the case of `CC(=O)c1ccc(OC(=O)/C=C/c2cccc(F)c2)cc1`, the results for the 50% inhibitory concentration (IC50) in the data set on Hepatitis B virus [1], in the data set on Hepatitis B virus [2] and with Hepatitis B virus [5] were over 777 µM, 1520 µM and 2210 µM, respectively. Further, the CC50 in data set [3] is over 3110 µM. Moreover, the “Selectivity Index” value is over 1.4 in data set [4] and over 2 in data set [6].
